IC50, inhibition and solubility data for 17 molecules are collected here from ChEMBL document CHEMBL3603806, “Discovery of a 6-(pyridin-3-yl)benzo[d]thiazole template for optimization of hedgehog and PI3K/AKT/mTOR dual inhibitors” (Bioorg Med Chem Lett, 2015).

pIC50: −log10 of the molar value. Active and inactive are the calls of the source. The rule behind the calls is not given here. Bounds are passed on as bounds.

A word on the pIC50: it is the IC50 on a negative log10 scale, so that one unit is a factor of ten. As usually defined, the inhibition is the percentage by which the read-out fell short of the control.

Data set [1] deals with Protein smoothened (Mus musculus, UniProt P56726). Briefly: Inhibition of SMO in mouse NIH/3T3 cells assessed as inhibition of SAG-induced hedgehog-mediated luminescence signaling by GRE-luciferase reporter gene assay. It counts as cell-based.
Chain of Protein smoothened (Mus musculus, UniProt P56726) (P56726 whole entry, canonical isoform): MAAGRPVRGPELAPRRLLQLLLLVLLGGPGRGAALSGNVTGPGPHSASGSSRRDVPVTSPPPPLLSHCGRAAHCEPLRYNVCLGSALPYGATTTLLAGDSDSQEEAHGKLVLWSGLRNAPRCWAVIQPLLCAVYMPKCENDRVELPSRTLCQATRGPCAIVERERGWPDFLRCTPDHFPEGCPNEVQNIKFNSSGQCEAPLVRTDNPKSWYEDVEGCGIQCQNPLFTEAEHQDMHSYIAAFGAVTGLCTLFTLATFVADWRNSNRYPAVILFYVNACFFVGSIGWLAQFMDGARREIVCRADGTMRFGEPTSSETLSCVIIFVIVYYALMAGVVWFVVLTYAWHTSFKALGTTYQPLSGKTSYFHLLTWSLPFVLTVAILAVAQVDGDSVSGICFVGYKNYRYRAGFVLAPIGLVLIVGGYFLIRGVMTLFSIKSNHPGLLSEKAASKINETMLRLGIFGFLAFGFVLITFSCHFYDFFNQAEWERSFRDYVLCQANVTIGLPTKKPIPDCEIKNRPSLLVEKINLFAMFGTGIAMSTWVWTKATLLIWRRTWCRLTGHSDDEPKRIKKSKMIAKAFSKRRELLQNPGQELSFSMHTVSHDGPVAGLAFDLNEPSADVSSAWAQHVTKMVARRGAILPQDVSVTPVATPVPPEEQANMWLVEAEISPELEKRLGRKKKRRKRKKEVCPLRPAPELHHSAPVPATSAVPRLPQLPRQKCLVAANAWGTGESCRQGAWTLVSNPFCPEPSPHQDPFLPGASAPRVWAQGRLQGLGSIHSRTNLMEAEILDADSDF
Data set [2] addresses T1, Phosphatidylinositol 4,5-bisphosphate 3-kinase catalytic subunit alpha isoform (Homo sapiens, UniProt P42336). Briefly: Inhibition of PI3Kalpha (unknown origin) assessed as reduction in luminescence signaling by kinase-Glo plus luminescent kinase assay. For orientation: In Kinase-Glo more light means more ATP remaining.
Data set [3] concerns the target Protein smoothened (Homo sapiens, UniProt Q99835). Briefly: Inhibition of human Smo expressed in human U2OS cells assessed as reduction in BODIPY-cyclopamine fluorescence signaling by competitive displacement assay. The format is cell-based.
The target in data set [4] is T1, Phosphatidylinositol 4,5-bisphosphate 3-kinase catalytic subunit alpha isoform. Briefly: Inhibition of PI3Kalpha (unknown origin) assessed as reduction in luminescence signaling at 1 uM by kinase-Glo plus luminescent kinase assay.
Data set [5] in a line: Solubility of the compound. The format is physicochemical.
The target in data set [6] is T2, Phosphatidylinositol 4,5-bisphosphate 3-kinase catalytic subunit delta isoform (Homo sapiens) (UniProt O00329).
T2 sequence (whole entry): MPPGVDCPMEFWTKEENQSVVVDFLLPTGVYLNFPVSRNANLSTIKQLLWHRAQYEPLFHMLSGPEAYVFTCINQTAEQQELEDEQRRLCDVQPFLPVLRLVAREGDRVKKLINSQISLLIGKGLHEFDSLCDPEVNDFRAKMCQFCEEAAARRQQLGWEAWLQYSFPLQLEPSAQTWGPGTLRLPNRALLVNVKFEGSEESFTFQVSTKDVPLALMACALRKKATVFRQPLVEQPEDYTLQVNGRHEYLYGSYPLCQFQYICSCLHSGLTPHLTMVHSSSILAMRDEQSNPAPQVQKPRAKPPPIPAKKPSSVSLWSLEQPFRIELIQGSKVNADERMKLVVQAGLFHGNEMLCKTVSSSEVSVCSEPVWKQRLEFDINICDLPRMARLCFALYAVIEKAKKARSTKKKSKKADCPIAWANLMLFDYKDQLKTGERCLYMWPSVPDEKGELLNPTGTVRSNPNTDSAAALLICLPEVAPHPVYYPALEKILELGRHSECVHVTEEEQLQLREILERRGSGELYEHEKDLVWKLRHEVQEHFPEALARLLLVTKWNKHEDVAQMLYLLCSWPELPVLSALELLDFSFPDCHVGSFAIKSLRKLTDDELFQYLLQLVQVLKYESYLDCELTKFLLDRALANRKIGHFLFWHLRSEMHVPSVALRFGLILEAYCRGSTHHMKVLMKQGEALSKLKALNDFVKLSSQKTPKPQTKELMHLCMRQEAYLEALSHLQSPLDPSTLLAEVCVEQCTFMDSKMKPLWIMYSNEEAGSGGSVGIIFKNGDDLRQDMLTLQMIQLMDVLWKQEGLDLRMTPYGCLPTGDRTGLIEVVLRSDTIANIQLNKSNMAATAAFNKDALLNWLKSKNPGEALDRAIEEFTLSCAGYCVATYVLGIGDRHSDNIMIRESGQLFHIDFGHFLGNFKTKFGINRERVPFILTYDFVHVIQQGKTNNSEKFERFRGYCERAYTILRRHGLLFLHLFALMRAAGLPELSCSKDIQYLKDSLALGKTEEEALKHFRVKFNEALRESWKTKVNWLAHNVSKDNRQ
Briefly: Inhibition of N-terminal poly-His tagged human p110-delta expressed in Sf9 cells incubated for 20 mins by alpha screen assay. For orientation: Bead proximity is the source of the signal in Alpha formats.

T1 sequence (P42336 whole entry, canonical isoform): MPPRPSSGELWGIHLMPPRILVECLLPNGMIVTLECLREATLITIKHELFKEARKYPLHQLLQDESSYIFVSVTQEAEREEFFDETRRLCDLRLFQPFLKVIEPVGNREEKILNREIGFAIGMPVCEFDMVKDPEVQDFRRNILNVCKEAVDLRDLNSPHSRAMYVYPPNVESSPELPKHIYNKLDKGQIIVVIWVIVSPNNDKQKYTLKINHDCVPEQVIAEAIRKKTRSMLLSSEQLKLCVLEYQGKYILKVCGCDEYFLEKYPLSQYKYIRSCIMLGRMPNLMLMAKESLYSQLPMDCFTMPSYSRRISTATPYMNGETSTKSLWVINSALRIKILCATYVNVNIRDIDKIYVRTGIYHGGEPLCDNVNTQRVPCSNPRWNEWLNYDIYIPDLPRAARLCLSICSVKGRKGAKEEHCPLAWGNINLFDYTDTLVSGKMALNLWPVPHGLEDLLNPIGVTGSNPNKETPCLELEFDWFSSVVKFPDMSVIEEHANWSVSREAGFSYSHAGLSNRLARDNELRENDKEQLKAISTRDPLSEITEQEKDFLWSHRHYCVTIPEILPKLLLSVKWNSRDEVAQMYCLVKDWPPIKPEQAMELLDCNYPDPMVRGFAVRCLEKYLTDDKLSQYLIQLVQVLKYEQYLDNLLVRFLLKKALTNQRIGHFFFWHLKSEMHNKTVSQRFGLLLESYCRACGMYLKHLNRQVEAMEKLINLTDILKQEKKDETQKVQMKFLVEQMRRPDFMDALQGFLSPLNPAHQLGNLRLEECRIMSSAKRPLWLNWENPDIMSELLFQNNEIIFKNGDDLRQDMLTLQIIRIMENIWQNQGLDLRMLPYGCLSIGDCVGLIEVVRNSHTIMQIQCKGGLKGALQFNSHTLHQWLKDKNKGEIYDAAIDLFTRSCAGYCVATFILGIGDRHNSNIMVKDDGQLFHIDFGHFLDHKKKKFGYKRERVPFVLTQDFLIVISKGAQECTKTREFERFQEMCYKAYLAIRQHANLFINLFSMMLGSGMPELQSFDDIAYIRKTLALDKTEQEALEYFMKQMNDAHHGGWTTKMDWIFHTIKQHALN
Chain of Protein smoothened (Homo sapiens, UniProt Q99835) (Q99835 whole entry, canonical isoform): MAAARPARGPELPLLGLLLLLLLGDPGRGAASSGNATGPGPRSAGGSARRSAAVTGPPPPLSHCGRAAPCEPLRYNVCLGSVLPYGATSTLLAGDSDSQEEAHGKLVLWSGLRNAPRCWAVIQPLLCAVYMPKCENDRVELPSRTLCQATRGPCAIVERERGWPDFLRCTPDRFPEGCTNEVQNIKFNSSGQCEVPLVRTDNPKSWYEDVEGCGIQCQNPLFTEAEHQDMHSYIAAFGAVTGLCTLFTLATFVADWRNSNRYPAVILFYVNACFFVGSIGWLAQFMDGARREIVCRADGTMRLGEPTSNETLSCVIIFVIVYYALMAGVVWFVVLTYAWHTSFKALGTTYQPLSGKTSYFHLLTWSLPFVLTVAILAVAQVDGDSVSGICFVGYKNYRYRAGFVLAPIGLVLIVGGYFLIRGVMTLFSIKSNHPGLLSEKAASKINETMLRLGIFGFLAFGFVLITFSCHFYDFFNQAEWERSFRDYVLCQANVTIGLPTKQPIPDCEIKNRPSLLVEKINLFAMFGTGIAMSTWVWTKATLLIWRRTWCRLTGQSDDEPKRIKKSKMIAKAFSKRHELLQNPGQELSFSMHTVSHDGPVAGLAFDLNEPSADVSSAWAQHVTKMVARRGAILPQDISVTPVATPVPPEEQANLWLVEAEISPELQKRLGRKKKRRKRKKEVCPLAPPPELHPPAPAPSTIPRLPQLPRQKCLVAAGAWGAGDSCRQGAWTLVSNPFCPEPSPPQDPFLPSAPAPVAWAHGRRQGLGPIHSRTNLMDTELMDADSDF

For the molecule `CC(=O)Nc1nc2ccc(-c3cnc(Cl)c(NCc4ccccc4)c3)cc2s1`, the pIC50 at Protein smoothened [1] was 6.03.
Consider `CC(=O)Nc1nc2ccc(-c3cnc(Cl)c(NC(=O)c4ccccc4F)c3)cc2s1`, for which the pIC50 at Protein smoothened [1] was less than 5.00.
As to `O=C(Nc1cc(-c2ccc3nc(NC4CC4)sc3c2)cnc1Cl)c1cccc(Cl)c1`, the pIC50 on Protein smoothened [1] is 6.82.
Take `CC(=O)Nc1nc2ccc(-c3cnc(Cl)c(NC(=O)c4cccc(Cl)c4)c3)cc2s1`: the pIC50 is 6.01 in data set [2], 7.39 at Protein smoothened [1] and 8.00 on Protein smoothened [3]. Also, in data set [4], the inhibition was 93%.
Regarding `CC(=O)Nc1nc2ccc(-c3cnc(Cl)c(NC(C#N)c4ccccc4)c3)cc2s1` (configuration not stated), the negative-log IC50 (pIC50) was 6.31 in data set [2] and 7.00 at Protein smoothened [1]. Further, the inhibition in data set [4] is 85%.
Turning to `O=C(Nc1cc(-c2ccc3nc(NCC4CC4)sc3c2)cnc1Cl)c1ccccc1`, the pIC50 at Protein smoothened [1] is 6.82.
Consider `O=C(Nc1cc(-c2ccc3nc(NC4CC4)sc3c2)cnc1Cl)c1ccccc1`, for which, on Protein smoothened [1], the pIC50 is 6.68.
Regarding `CC(=O)Nc1nc2ccc(-c3cnc(Cl)c(NS(=O)(=O)c4ccc(F)cc4)c3)cc2s1`, the pIC50 at Protein smoothened [1] was 6.92. Further, the solubility entry in data set [5] is listed as “Insoluble”. Moreover, in data set [6], the inhibition result was “Active”.
Turning to `CC(=O)Nc1nc2ccc(-c3cnc(Cl)c(NC(=O)c4ccccc4Cl)c3)cc2s1`, the negative-log IC50 (pIC50) on Protein smoothened [1] is 5.39.
On the same count and under the same terms, to `O=C(Nc1cc(-c2ccc3nc(NCC4CC4)sc3c2)cnc1Cl)c1cccc(Cl)c1` belongs 6.72; to `CC(=O)Nc1nc2ccc(-c3cnc(Cl)c(NC(=O)c4cccc(F)c4)c3)cc2s1`, 5.30.
`CC(=O)Nc1nc2ccc(-c3cnc(Cl)c(NC(=O)C4CC4)c3)cc2s1`: the pIC50 on Protein smoothened [1] is less than 5.00.
Turning to `CC(=O)Nc1nc2ccc(-c3cnc(Cl)c(NC(=O)c4ccc(F)cc4)c3)cc2s1`, at Protein smoothened [1], the pIC50 was 6.77. In addition, the inhibition in data set [4] came out at 48%.
`CC(=O)Nc1nc2ccc(-c3cnc(Cl)c(NC(=O)Cc4ccccc4)c3)cc2s1`: the pIC50 on Protein smoothened [1] is 5.47.
For `CC(=O)Nc1nc2ccc(-c3cnc(Cl)c(NC(=O)c4ccccc4)c3)cc2s1`, the results for the negative-log IC50 (pIC50) at Protein smoothened [1] and on Protein smoothened [3] were 7.19 and 8.25, respectively. Moreover, in data set [4], the inhibition turned out to be 9%.
Consider `CC(=O)Nc1nc2ccc(-c3cnc(Cl)c(NC(=O)c4ccc(C)cc4)c3)cc2s1`, for which the pIC50 at Protein smoothened [1] is 6.09.
Regarding `CC(=O)Nc1nc2ccc(-c3cnc(Cl)c(NC(=O)c4ccc(Cl)cc4)c3)cc2s1`, at Protein smoothened [1], the negative-log IC50 (pIC50) is less than 5.00.
